Here are results for 10 molecules from EP0434364A2, “Benzodiazepine analogs for treating panic syndrome and for directly inducing analgesia” (MERCK & CO. INC., priority 1989, dated 1991).

One assay addresses T1, Gastrin Receptor (Cavia porcellus, UniProt H0VZC5).
T1 construct: The washed guinea pig gastric glands prepared as above were resuspended; from tissue; host or cells: guinea pig gastric mucosal glands (intact glands after collagenase)
T1 sequence (H0VZC5 1-426): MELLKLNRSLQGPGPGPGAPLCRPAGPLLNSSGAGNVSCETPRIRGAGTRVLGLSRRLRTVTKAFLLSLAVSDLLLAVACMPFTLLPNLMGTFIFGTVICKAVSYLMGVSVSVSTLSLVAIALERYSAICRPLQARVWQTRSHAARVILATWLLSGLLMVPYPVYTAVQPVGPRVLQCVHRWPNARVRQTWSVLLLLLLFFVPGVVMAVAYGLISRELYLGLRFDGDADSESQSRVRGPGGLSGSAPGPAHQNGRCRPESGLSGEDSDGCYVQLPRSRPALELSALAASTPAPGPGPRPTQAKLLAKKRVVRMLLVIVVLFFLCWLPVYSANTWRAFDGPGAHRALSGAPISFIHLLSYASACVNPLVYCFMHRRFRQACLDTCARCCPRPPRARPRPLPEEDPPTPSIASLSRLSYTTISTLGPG
The assay is described as follows: Gastrin Receptor Binding in Guinea Pig Gastric Glands (125I-gastrin).

For another assay, the target named is T2, CCK Receptor (Pancreas) (Rattus norvegicus, UniProt P30551).
T2 construct: The whole pancreas was dissected free of fat tissue and was homogenized; from tissue; host or cells: rat whole pancreas membranes
T2 sequence (P30551 1-444): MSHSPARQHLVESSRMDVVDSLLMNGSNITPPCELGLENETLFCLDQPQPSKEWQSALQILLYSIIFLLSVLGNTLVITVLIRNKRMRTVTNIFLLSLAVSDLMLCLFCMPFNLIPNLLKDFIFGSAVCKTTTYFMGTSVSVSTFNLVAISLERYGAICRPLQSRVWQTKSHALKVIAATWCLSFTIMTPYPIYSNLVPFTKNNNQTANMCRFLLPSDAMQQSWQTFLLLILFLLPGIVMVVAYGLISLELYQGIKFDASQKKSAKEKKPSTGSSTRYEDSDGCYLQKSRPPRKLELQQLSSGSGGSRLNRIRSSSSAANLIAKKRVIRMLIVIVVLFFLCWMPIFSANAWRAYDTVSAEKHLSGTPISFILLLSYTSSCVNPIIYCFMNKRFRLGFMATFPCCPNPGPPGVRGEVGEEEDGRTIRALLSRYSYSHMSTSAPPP
Nature of the assay: CCK Receptor Binding (Pancreas), inhibition of 125I-CCK-33 binding. Also noted: species or system Sprague-Dawley rats. The procedure:
CCK-33 was radiolabeled with ¹²⁵I-Bolton Hunter reagent (2000 Ci/mmole) as described by Sankara et al. (J. Biol. Chem. 254: 9349-9351, 1979). Receptor binding was performed according to Innis and Snyder (Proc. Natl. Acad. Sci. 77, 6917-6921, 1980) with the minor modification of adding the additional protease inhibitors, phenylmethane sulfonyl fluoride and o-phenanthroline.
Male Sprague-Dawley rats (200-350g) were sacrificed by decapitation. The whole pancreas was dissected free of fat tissue and was homogenized in 20 volumes of ice-cold 50 mM Tris HCI (pH 7.7 at 25°C) with a Brinkmann Polytron PT 10. The homogenates were centrifuged at 48,000 g for 10 min. Pellets were resuspended in Tris Buffer, centrifuged as above and resuspended in 200 volumes of binding assay buffer (50 mM Tris HCI, pH 7.7 at 25°C, 5 mM dithiothrietol, 0.1 mM bacitracin, 1.2 mM phenylmethane sulfonyl fluoride and 0.5 mM o-phenanthroline). […] All assays were run in duplicate or triplicate. The reaction mixtures were incubated at 37°C for 30 minutes and centrifuged in a Beckman Microfuge (4 minutes) immediately after adding 1 ml of ice-cold incubation buffer. The supernatant was aspirated and discarded, pellets were counted with a Beckman gamma 5000. For Scatchard analysis (Ann. N.Y. Acad. Sci. 51: 660, 1949), ¹²⁵I-CCK-33 was progressively diluted with increasing concentrations of CCK-33.

The test system of a further assay is DBA2 mice. The assay is described as follows: Black/white exploration test (animal model of anxiety). Format: in vivo. To be noted: for active dose range / difference in time spent in the black and white side / preference for rearing in the black side: mice; for active dose range: black/white exploration test. An excerpt: The black/white exploration test [Crawley et al. Pharmacology, Biochemistry and Behav. 13, 167 (1980)] is a simple animal model of anxiety. Rodents placed in a two compartment box which consists of a brightly lit, white painted side and a dimly lit, black painted side, display a marked preference for the black side of the apparatus. This behavior is caused by the aversive properties of the brightly lit, white painted section. Classical anxiolytic drugs [such as diazepam, see Crawley, supra] and novel anxiolytic drugs [such as 5HT₃ antagonists, see Jones et al. Br. J. Pharm. 93, 985 (1988)] decrease the preference of the animal for the black dimly lit side of the apparatus.
A. Naive male DBA2 mice (25-30) were housed on a reversed light/dark cycle and tested during the dark phase of the cycle under dim red light. The apparatus consisted of an open topped box (40cm long X 27 cm wide X 27 cm high) divided into a small area (2/5) and a large area (3/5) by a partition that extended 20 cm above the walls. There was a 7.5 X 7.5 cm opening in the partition at floor level. The small compartment was painted black and the large compartment white. The floor of each compartment was marked into 9 cm squares. The white compartment was illuminated by a 100 W tungsten bulb 17 cm above the box and the black compartment by a similarly placed 60 W red bulb.
Animals that had been injected with drug or vehicle were placed individually into the centre of the white area and their behavior observed during a 5 minute period by remote video recording. Four behavioral parameters were recorded every minute: the number of exploratory rears in the white and black sections, the number of line crossings in the black and white sections, the number of transitions between the two sections and the time spent in the black and white sections. Animals were tested in treatment groups of 8-10 and vehicle controls were run on each test day. Data were analysed by ANOVA and Dunnetts test.

The subject of another assay is Sprague Dawley rats. Nature of the assay: Exploratory/locomotor activity in automated activity cages (novel environment). The assay is classed as in vivo. As for the experimental part: B. The effects of CCK-8 and compound A on the exploratory behavior of the rat were examined in automated activity cages and by direct observation. It is known that exogenous CCK-8 decreases exploratory behavior in rats in a novel environment by accelerating the process of habituation. [See Crawley, Pharm. Biochem & Behav. 20, 23-27 (1984).]
Expt 1. Male Sprague Dawley rats were injected ([…].) with CCK-8 and immediately placed in automated activity cages. Activity was measured for 30 minutes past injection.
Expt 2. Male SD rats were injected (s.c.) with the CCK antagonist compound A (0.0001-10mg/kg) and immediately placed in the automated activity cages. […] As the anxiolytic drug chlordiazepoxide also increases spontaneous locomotor activity in rats in a novel environment [(McElroy et al. Psychopharm. 85: 224-226 (1985)] these findings are consistent with an anxiolytic action of Compound A useful in the treatment of panic disorder.

A further assay has as its system rats. Nature of the assay: Exploration in a novel environment by direct observation (perspex cage). To be noted: 0.1 mg/kg, 15 minute period 15 minutes after treatment. Format: in vivo. As for the experimental part: Expt 3. In order to assess further the effect of Compound A on exploration in a novel environment, the motoric hehaviors of rats placed in a perspex cage was recorded by direct observation for a 15 minute period 15 minutes after treatment with Compound A.
Experimenters (unaware of the treatments the animals had received) recorded the frequency and duration of rearing, sniffing, grooming and cage crossing using a keypad interfaced to a BBC microcomputer.

Where two headings read alike, the source gives them in different places. Ends that are not written are not given here.

Regarding `CN1C(=O)C(NC(=O)c2cc3ccccc3[nH]2)N=C(c2ccncc2)c2ccccc21` (racemic) [Example 17, 1,3-Dihydro-3(RS)-(2-indolecarbonylamino)-1-methyl-5-(4-pyridyl)-2H-1,4-benzodiazepin-2-one], the IC50 was 0.66 µM on Gastrin Receptor and 0.0068 µM at CCK Receptor (Pancreas).

Regarding `CN1C(=O)C(NC(=O)c2cc3ccccc3[nH]2)N=C(c2ccccn2)c2ccccc21` (racemic) [Example 24, (RS)-N-(2,3-Dihydro-1-methyl-2-oxo-5-(2-pyridyl)-1H-1,4-benzodiazepin-3-yl)-1H-indole-2-carboxamide], the concentration for half-maximal inhibition (IC50) at Gastrin Receptor came to 0.16 µM; on CCK Receptor (Pancreas) it was 0.00037 µM.

On to `Cc1cccc(NC(=O)NC2N=C(c3ccccn3)c3ccccc3N(CC(C)C)C2=O)c1` (racemic) [Example 25, (RS)-N-(2,3-Dihydro-1-(2-methylpropyl)-2-oxo-5-(2-pyridyl)-1H-1,4-benzodiazepin-3-yl)-N′-(3-methyl-phenyl)-urea], for which the IC50 on Gastrin Receptor was determined as 0.00067 µM; at CCK Receptor (Pancreas), 0.49 µM.

Turning to `CN1C(=O)C(NC(=O)Nc2ccc3c(c2)CCC3)N=C(c2ccccc2)c2ccccc21` (racemic) [Example 26, (RS)-N-(2,3-dihydro-1-methyl-2-oxo-5-phenyl-1H-1,4-benzodiazepin-3-yl)-N′-(5-indanyl)urea], the IC50 was 0.0019 µM at Gastrin Receptor (guinea pig gastric glands, 125I-gastrin, 25°C 30 minutes, read-out: IC50(µM) 125I-Gastrin Gastric Glands) and 0.075 µM on CCK Receptor (Pancreas).

As to `Cc1cccc(NC(=O)N[C@@H]2N=C(c3ccccc3)c3ccccc3N(C)C2=O)c1` [Example 5, (R)-N-(2,3-Dihydro-1-methyl-2-oxo-5-phenyl-1H-1,4-benzodiazepin-3-yl)-N′-(3-methylphenyl)-urea], the IC50 on CCK Receptor (Pancreas) (rat pancreas membranes, 125I-CCK-33, 37°C 30 minutes, read-out: IC50(µM) 125I-CCK Pancreas) amounted to 0.28 µM. Moreover, in the assay on DBA2 mice, the active dose range was 0.005 to 0.05 µg/kg. In addition, the “difference in time spent in the black and white side” value in the assay with DBA2 mice (dose of 0.005 ug/kg) is on record as “decreased”. Moreover, the “preference for rearing in the black side” value in the assay with DBA2 mice (dose of 0.05 ug/kg) is listed as “abolished”.

Turning to `Cc1cccc(NC(=O)N[C@H]2N=C(c3ccccc3)c3ccccc3N(C)C2=O)c1` [Example 11, (S)-N-(2,3-Dihydro-1-methyl-2-oxo-5-phenyl-1H-1,4-benzodiazepin-3-yl)-N′-(3-methylphonyl)-urea], the results for the IC50 on Gastrin Receptor and on CCK Receptor (Pancreas) were 0.092 µM and 0.0041 µM, respectively.

Regarding `CN1C(=O)[C@@H](NC(=O)c2cc3ccccc3[nH]2)N=C(c2ccccc2)c2ccccc21` [Example 16, 3(S)-(-)-1,3-Dihydro-3-(2-indolecarbonylamino)-1-methyl-5-phenyl-2H-1,4-benzodiazepin-2-one], the “preference for locomotion (line crossings) in the black side” value in the assay on DBA2 mice (mice, 0.5, 5.0 and 500 ug/kg) is “abolished”. Also, the “difference in time spent in the black and white side” value in the assay with DBA2 mice (5.0 and 500 ug/kg) was “abolished”. The same molecule registered an active dose range in the assay on DBA2 mice of 0.05 to 5.0 µg/kg. The “preference for rearing in the black side” value in the assay on DBA2 mice (doses of 0.05, 0.5, 5.0 and 500 ug/kg) is reported as “significantly decreased”. For the same molecule, the “habituation and period of exploratory activity” value with Sprague Dawley rats (s.c., 0.0001-10mg/kg, F(6,124) = 2.54, p<0.05) was “delayed habituation and prolonged the period of exploratory activity”. In the assay with Sprague Dawley rats (s.c., 0.1 mg/kg, at 25 minutes, p<0.01), the levels of activity entry was “significantly above controls”. Further, the “activity, higher and lower doses” value with Sprague Dawley rats (s.c., doses higher and lower than 0.1 mg/kg, at 25 minutes, bell-shaped dose response curve) is on record as “no significant effect”. In addition, in the assay with rats (P<0.01), the Sniffing result is listed as “significantly increased” and the rearing result was “significantly increased”. Also, the cage crossing result with rats (P<0.05) was “significantly increased”.

In the case of `CN1C(=O)[C@H](NC(=O)Nc2cc3c(cn2)[nH]c2ccccc23)N=C(c2ccccc2)c2ccccc21` [Example 22], the IC50 on Gastrin Receptor was found to be 1.3 µM; at CCK Receptor (Pancreas), 0.0044 µM.

On CCK Receptor (Pancreas), `CN1C(=O)[C@@H](NC(=O)c2cc3cc(O)ccc3[nH]2)N=C(c2ccccc2)c2ccccc21` [Example 27, 1,3-Dihydro-3-(5-hydroxyindole-2-carbonylamino)-1-methyl-5-phenyl-2H-1,4-benzodiapin-2-one] had an IC50 of 0.0033 µM.

With “CCK-8 (DYMGWMDF; ends and bridges not checked; UniProt P06307 96-103, looked up) [reference compound]”, the locomotor activity result with Sprague Dawley rats (i.p., 0.5-16µg/kg, 30 minutes post injection, F(6,87) = 3.21 (p<0.01)) is given as “dose-dependently decreased”.

As usually defined, the IC50 is the concentration that gives 50% inhibition.
